According to patent US20180015054A1, “Method of Maintaining the Anti-Depressant Effect of Ketamine With Lithium” (Icahn School of Medicine at Mount Sinai, priority 2014, published 2018):

Key:
depressive symptoms = details: cited from earlier work
[1] = system: patients with treatment-resistant depression (TRD); details: cited from earlier work
PTSD patients = details: three clusters: re-experiencing, avoidance and numbing, hyperarousal; cited from earlier work
[2] = system: patients with treatment-resistant major depression; details: cited from earlier work
[3] = system: patients with BPD, TRD, MDD and PTSD; details: cited from earlier work
[4] = system: patients with treatment-resistant major depression; details: cited from earlier work; remark: listed apart in the source
PTSD symptom severity = details: assessed 24 hours after infusion; cited from earlier work
[5] = system: patients with treatment-resistant major depression (TRD); assay: Planned randomized placebo-controlled double-blind trial of lithium + ketamine in TRD; format: in vivo, human
Source text: A single-site early phase study will enroll patients with treatment-resistant major depression (TRD) in a randomized, placebo (PLC)-controlled, double blind clinical trial of lithium (Li)+ketamine (KET). The study will efficiently test the efficacy of Li compared to PLC in continuing the antidepressant response to KET. The study occurs in several phases. During a Screening phase participants undergo informed consent followed by a thorough medical and psychiatric evaluation. Eligible participants who meet all study inclusion/exclusion criteria receive a single Test KET(ketamine) Infusion to determine antidepressant response status. Non-responders [defined as <50% improvement in depression severity as measured by the Montgomery-Asberg Depression Rating Scale (MADRS) 24 hours following the infusion] are exited from the study and provided with standard of care. KET responders (2:50% improvement in MADRS) proceed to the Li/PLC treatment phase in which participants receive up to 1200 mg/day of Li or matching PLC under double blind conditions. Participants proceed to a 4-week Continuation Phase while remaining on their treatment assignment (Li/PLC) during which time depressive symptoms are monitored twice weekly. The primary outcome is depression severity as measured by the MADRS in the Li compared to PLC group at the 2-week point during the Continuation Phase. […]

**Q.** Which results are given for `Nc1nc2ccc(OC(F)(F)F)cc2s1` [riluzole]?
**A.** relapse prevention following ketamine compared to placebo (depressive symptoms; 4-week study): no benefit of riluzole beyond placebo; relapse prevention following ketamine compared to placebo ([1]; TRD): not superior to placebo

**Q.** For `Fc1ccc([C@@H]2CCNC[C@H]2COc2ccc3c(c2)OCO3)cc1` [paroxetine], which “efficacy in PTSD” value (PTSD patients) is on record?
**A.** modest effect sizes and limited efficacy

**Q.** With `CNC1(c2ccccc2Cl)CCCCC1=O` (centres unmarked) [ketamine] as the molecule, how does the “improvement in MADRS score compared to midazolam group” value ([2]; 24 hours after single IV infusion 0.5 mg/kg, P<0.001) read?
**A.** significantly greater improvement

**Q.** What about the “duration of efficacy following a ketamine infusion” value ([2]; no longer separated from placebo at 7-day time point) of the same molecule?
**A.** 1 week

**Q.** What about the “duration of dissociative or psychotomimetic effects” value ([2]; no patient beyond this time) of the same molecule?
**A.** ≤ 2 h

**Q.** And the safety and tolerability ([2]; single IV infusion 0.5 mg/kg)?
**A.** very safe and well tolerated

**Q.** What about the “onset of antidepressant effects” value ([3]; as early as, following single intravenous administration) of the same molecule?
**A.** 40 min

**Q.** What about the “duration of antidepressant efficacy” value ([3]; following a single administration) of the same molecule?
**A.** a few days to approximately a week or two

**Q.** And the “cumulative risk of relapse” value ([4]; 3-month observation period, free of concomitant medication)?
**A.** 70%

**Q.** What about the “time to rapid improvement in depressive symptoms” value ([4]; after first ketamine infusion) of the same molecule?
**A.** ≤ 24 h

**Q.** What about the “median time to relapse” value ([4]; following sixth and final ketamine infusion) of the same molecule?
**A.** 18 days

**Q.** What about the overall response rate ([4]; repeated infusions over 2 weeks) of the same molecule?
**A.** 70.8%

**Q.** What about the “cumulative probability of relapse” value (depressive symptoms; 4-week assessment period after ketamine) of the same molecule?
**A.** 73%

**Q.** What about the “cumulative risk of relapse” value ([1]; 4-week observation period after ketamine) of the same molecule?
**A.** 62%

**Q.** And the “response rate (reduction of 50% or more on MADRS)” value ([1]; 26 TRD patients, single open-label IV infusion 0.5 mg/kg)?
**A.** 65%

**Q.** What about the “reduction in PTSD symptom severity compared with midazolam” value (PTSD symptom severity) of the same molecule?
**A.** significant and rapid reduction

**Q.** With `O=C([O-])[O-].[Li+].[Li+]` [lithium, lithium carbonate] as the molecule, how does the “anticipated maintenance of the ketamine anti-depressant effect” value ([5]; ketamine responders receiving lithium, after last dose of ketamine) read?
**A.** at least two or three months

**Q.** And the “expected duration of therapeutic effect of lithium following a response to ketamine” value ([5]; lithium carbonate 300-1800 mg daily)?
**A.** at least 3 months

**Q.** With `CN[C@H]1CC[C@@H](c2ccc(Cl)c(Cl)c2)c2ccccc21` [sertraline] as the molecule, how does the “efficacy in PTSD” value (PTSD patients) read?
**A.** modest effect sizes and limited efficacy
